Patent US20030068275A1, “Coordination complexes for detecting analytes, and methods of making and using the same” (priority 2001, published 2003)

Assay: Detection of nitric oxide with the [Co2(O2CAr^Tol)4(dansylpiperazine)2] fluorescent sensor
Conditions: for peak emission intensity wavelength: CH2Cl2, excited at 350 nm
Description: Detection of Nitric Oxide with the [Co2(O2CAr^Tol)4(dansylpiperazine)2Fluorescent Sensor. It is believed that in solution [Co2(O2CAr^Tol)4(dansylpiperazine)2] is in equilibrium between two species: the [Co2(μ-O2CAr^Tol)4(dansylpiperazine)2] (paddle-wheel) isomer and the [Co2(μ-O2CAr^Tol)2(O2CAr^Tol)2(dansylpiperazine)2] (windmill) isomer. […] The ability of the [Co2(O2CAr^Tol)4(dansylpiperazine)2] system to act as a nitric oxide sensor was tested. […] The exact reaction that occurs in this experiment has not yet been determined.
The fluorescence response of [Co2(O2CAr^Tol)4(dansylpiperazine)2] after exposure to excess NO in CH2Cl2 was measured spectroscopically. Solutions were excited at 350 nm and the emission spectrum recorded. The peak emission intensity is at 503 nm before exposure NO, but shifts to 513 nm after exposure to NO. Emission spectra, shown in FIG. 5, were recorded at 0, 1, 5, 10, 20, 30, 40, 50, and 60 minutes post exposure to NO. A fluorescence increase of 9.6-fold was observed after 60 minutes.

## [Co2(μ-O2CAr^Tol)4(dansylpiperazine)2] [[Co2(O2CAr^Tol)4(dansylpiperazine)2]]
CH2Cl2, excess NO, excited at 350 nm, after 60 minutes
  fluorescence increase: 9.6 fold
After exposure to excess NO
  peak emission intensity wavelength: 513 nm
Before exposure to NO
  peak emission intensity wavelength: 503 nm
Solution in dichloromethane, before NO (FIG. 4b, left)
  fluorescence in the absence of nitric oxide: little to no fluorescence
Solution in dichloromethane, excess NO (FIG. 4b, right)
  fluorescence change after exposure to nitric oxide: increase in fluorescence
